Test results taken from publication PMC5458252, “Niclosamide is a potential therapeutic for familial adenomatosis polyposis by disrupting Axin-GSK3 interaction” (Oncotarget, 2017).

Target: T1, GSK3β (Homo sapiens, UniProt P49841)
T1 construct: gene GSK3B; His-tagged recombinant GSK3β from sf9 insect cells
Assay: SPR (ProteOn XPR36, immobilized recombinant GSK3β); supported by competition with FITC-Axin peptide (AFF assay)
Type: binding
Excerpt: SPR (ProteOn XPR36, immobilized recombinant GSK3β); supported by competition with FITC-Axin peptide (AFF assay) on GSK3β | wild type Axin peptide or niclosamide directly binds to GSK3, the equilibrium dissociation constant yielding a KD

T1 sequence (P49841 whole entry): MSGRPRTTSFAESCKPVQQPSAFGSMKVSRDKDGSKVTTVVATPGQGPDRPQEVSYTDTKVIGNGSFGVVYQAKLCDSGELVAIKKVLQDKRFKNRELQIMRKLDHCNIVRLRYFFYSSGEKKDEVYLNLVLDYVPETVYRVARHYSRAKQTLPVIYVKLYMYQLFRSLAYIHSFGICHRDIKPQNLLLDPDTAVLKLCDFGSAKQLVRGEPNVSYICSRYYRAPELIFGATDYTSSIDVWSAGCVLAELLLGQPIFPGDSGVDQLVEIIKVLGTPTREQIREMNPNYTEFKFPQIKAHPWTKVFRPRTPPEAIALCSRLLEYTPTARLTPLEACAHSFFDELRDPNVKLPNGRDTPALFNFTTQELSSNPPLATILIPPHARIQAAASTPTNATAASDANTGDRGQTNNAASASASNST

Kd: 34.5 µM
Compound: O=C(Nc1ccc([N+](=O)[O-])cc1Cl)c1cc(Cl)ccc1O [Niclosamide]
